Test results reported in patent US7943770B2, “Fused quinoline derivative and use thereof” (Takeda Pharmaceutical Company Limited, priority 2004, dated 2011).

Target: T1, hNK2 receptor (Homo sapiens, UniProt P21452)
T1 construct: host or cells: CHO cells
T1 sequence (P21452 1-398): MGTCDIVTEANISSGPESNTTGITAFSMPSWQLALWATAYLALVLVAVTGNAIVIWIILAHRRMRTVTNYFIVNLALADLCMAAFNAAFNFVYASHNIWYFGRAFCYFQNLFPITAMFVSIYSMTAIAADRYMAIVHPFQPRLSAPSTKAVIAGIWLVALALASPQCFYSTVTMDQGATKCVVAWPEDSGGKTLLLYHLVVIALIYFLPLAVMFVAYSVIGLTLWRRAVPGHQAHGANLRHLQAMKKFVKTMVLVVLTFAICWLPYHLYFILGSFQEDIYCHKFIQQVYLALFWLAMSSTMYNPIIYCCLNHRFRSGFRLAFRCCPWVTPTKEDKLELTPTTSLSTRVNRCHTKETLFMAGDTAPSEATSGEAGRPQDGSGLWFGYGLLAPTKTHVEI
Test: Radio-ligand ([125I]-NKA) receptor binding inhibitory activity using membrane fraction of hNK2 receptor-expressing CHO cell
Details: membrane fraction of hNK2 receptor-expressing CHO cells, 25° C., 30 min
Experimental: hNK2 receptor-expressing CHO cells (produced by EUROSCREEN) were cultured in HAM-F12 medium containing 400 μg/ml Geneticin, 100 U/mL penicillin, 100 μg/mL streptomycin and 10% inactivated serum. The medium was removed and adhered cells were washed with PBS, and PBS containing 5 mM EDTA was added to detach the cells from the flask. The cells were recovered by centrifugation, suspended in suspending buffer A (15 mM Tris-HCl (pH 7.5), 2 mM MgCl2, 0.3 mM EDTA, 1 mM EGTA), disrupted by POLYTRON homogenizer (manufactured by KINEMATICA) and centrifuged at 800×g for 10 min. The supernatant was recovered and ultracentrifuged at 100000×g for 25 min. The precipitated fraction was suspended in suspending buffer B (7.5 mM Tris-HCl (pH 7.5), 12.5 mM MgCl2, 0.3 mM EDTA, 1 mM, […], 250 mM Sucrose) and cryopreserved (at −80° C.) as a receptor specimen.
An assay buffer (50 μl, 50 mM Tris-HCl (pH 7.4), 0.02% bovine serum albumin, 2 μg/mL chymostatin, 40 μg/mL bacitracin, 40 μg/mL APMSF, 3 mM MnCl2) was added to a 96 well microassay plate. Thereto was added a 20 μg/mL membrane specimen suspended in the assay buffer (50 μL). An assay buffer (50 μL) containing 2% dimethyl sulfoxide was added to examine the total binding, 4 unlabeled NKA (produced by Peptide Institute, Inc.) solution (50 μL) diluted with an assay buffer containing 2% dimethyl sulfoxide was added to examine non-specific binding, and a test compound diluted with an assay buffer (50 containing 2% dimethyl sulfoxide) was added to examine the binding inhibitory activity of the test compound. Furthermore, […] [^125I]-NKA (produced by Amersham Biosciences) solution (50 μL) was added to each well.
After reaction at 25° C. for 30 min., the reaction was stopped by rapid filtration on a unifilter plate (GF/C) (manufactured by PerkinElmer) using a cell harvester (manufactured by PerkinElmer) and the cells were washed 5 times with 50 mM Tris-HCl (pH 7.4) buffer containing 0.02% bovine serum albumin (250 μL). The GF/C filter plate was dried and 20 μl, of MicroScinti-O (manufactured by PerkinElmer) was added and the radioactivity was measured in Topcount (manufactured by PerkinElmer). The GF/C filter plate, which had been immersed in 0.3% polyethyleneimine for one day, was used. Specific binding is shown by the value obtained by subtracting non-specific binding from the total binding. The binding inhibitory activity of the test compound is shown by the ratio of the value obtained by subtracting the measured value associated with the addition of the test compound from the total binding, to the value of the specific binding.

| Compound | IC50 [µM] |
| --- | --- |
| O=C(N[C@@H]1CCCC[C@@H]1C(=O)N1CC[C@@H]2[C@H](c3ccccc3)Nc3ccccc3[C@@H]21)c1ccc(C(F)(F)F)cc1 [Example 87, N-((1R,2S)-2-{[(3aR,4R,9bR)-4-Phenyl-2,3,3a,4,5,9b-hexahydro-1H-pyrrolo[3,2-c]quinolin-1-yl]carbonyl}cyclohexyl)-4-(trifluoromethyl)benzamide] | < 0.01 |
| O=C(N[C@@H]1CCCC[C@@H]1C(=O)N1CC[C@@H]2[C@H](c3ccccc3)Nc3ccccc3[C@@H]21)c1cccs1 [Example 89, N-((1R,2S)-2-{[(3aR,4R,9bR)-4-Phenyl-2,3,3a,4,5,9b-hexahydro-1H-pyrrolo[3,2-c]quinolin-1-yl]carbonyl}cyclohexyl)thiophene-2-carboxamide] | < 0.01 |
| COc1ccc(C(=O)N[C@@H]2CCCC[C@@H]2C(=O)N2CC[C@@H]3[C@H](c4ccccc4)Nc4ccccc4[C@@H]32)cc1 [Example 90, 4-Methoxy-N-((1R,2S)-2-{[(3aR,4R,9bR)-4-phenyl-2,3,3a,4,5,9b-hexahydro-1H-pyrrolo[3,2-c]quinolin-1-yl]carbonyl}cyclohexyl)benzamide] | < 0.001 |
| O=C(N[C@@H]1CCCC[C@@H]1C(=O)N1CC[C@@H]2[C@H](c3ccccc3)Nc3ccccc3[C@@H]21)c1ccncc1 [Example 91, N-((1R,2S)-2-{[(3aR,4R,9bR)-4-Phenyl-2,3,3a,4,5,9b-hexahydro-1H-pyrrolo[3,2-c]quinolin-1-yl]carbonyl}cyclohexyl)isonicotinamide] | < 0.01 |
| O=C(N[C@@H]1CCCC[C@@H]1C(=O)N1CC[C@@H]2[C@H](c3ccccc3)Nc3ccccc3[C@@H]21)c1ccc(F)cc1 [Example 92, 4-Fluoro-N-((1R,2S)-2-{[(3aR,4R,9bR)-4-phenyl-2,3,3a,4,5,9b-hexahydro-1H-pyrrolo[3,2-c]quinolin-1-yl]carbonyl}cyclohexyl)benzamide] | < 0.01 |
| CCCCCC(=O)N[C@@H]1CCCC[C@@H]1C(=O)N1CC[C@@H]2[C@H](c3ccccc3)Nc3ccccc3[C@@H]21 [Example 93, N-((1R,2S)-2-{[(3aR,4R,9bR)-4-Phenyl-2,3,3a,4,5,9b-hexahydro-1H-pyrrolo[3,2-c]quinolin-1-yl]carbonyl}cyclohexyl)hexanamide] | < 0.01 |
| COc1ccccc1C(=O)N[C@@H]1CCCC[C@@H]1C(=O)N1CC[C@@H]2[C@H](c3ccccc3)Nc3ccccc3[C@@H]21 [Example 94, 2-Methoxy-N-((1R,2S)-2-{[(3aR,4R,9bR)-4-phenyl-2,3,3a,4,5,9b-hexahydro-1H-pyrrolo[3,2-c]quinolin-1-yl]carbonyl}cyclohexyl)benzamide] | < 0.01 |
| COc1cccc(C(=O)N[C@@H]2CCCC[C@@H]2C(=O)N2CC[C@@H]3[C@H](c4ccccc4)Nc4ccccc4[C@@H]32)c1 [Example 95, 3-Methoxy-N-((1R,2S)-2-{[(3aR,4R,9bR)-4-phenyl-2,3,3a,4,5,9b-hexahydro-1H-pyrrolo[3,2-c]quinolin-1-yl]carbonyl}cyclohexyl)benzamide] | < 0.01 |
| O=C(N[C@@H]1CCCC[C@@H]1C(=O)N1CC[C@@H]2[C@H](c3ccccc3)Nc3ccccc3[C@@H]21)c1cccc(F)c1 [Example 96, 3-Fluoro-N-((1R,2S)-2-{[(3aR,4R,9bR)-4-phenyl-2,3,3a,4,5,9b-hexahydro-1H-pyrrolo[3,2-c]quinolin-1-yl]carbonyl}cyclohexyl)benzamide] | < 0.01 |
| Cc1ccccc1C(=O)N[C@@H]1CCCC[C@@H]1C(=O)N1CC[C@@H]2[C@H](c3ccccc3)Nc3ccccc3[C@@H]21 [Example 97, 2-Methyl-N-((1R,2S)-2-{[(3aR,4R,9bR)-4-phenyl-2,3,3a,4,5,9b-hexahydro-1H-pyrrolo[3,2-c]quinolin-1-yl]carbonyl}cyclohexyl)benzamide] | < 0.01 |
| Cc1cccc(C(=O)N[C@@H]2CCCC[C@@H]2C(=O)N2CC[C@@H]3[C@H](c4ccccc4)Nc4ccccc4[C@@H]32)c1 [Example 98, 3-Methyl-N-((1R,2S)-2-{[(3aR,4R,9bR)-4-phenyl-2,3,3a,4,5,9b-hexahydro-1H-pyrrolo[3,2-c]quinolin-1-yl]carbonyl}cyclohexyl)benzamide] | < 0.001 |
| Cc1ccc(C(=O)N[C@@H]2CCCC[C@@H]2C(=O)N2CC[C@@H]3[C@H](c4ccccc4)Nc4ccccc4[C@@H]32)cc1 [Example 99, 4-Methyl-N-((1R,2S)-2-{[(3aR,4R,9bR)-4-phenyl-2,3,3a,4,5,9b-hexahydro-1H-pyrrolo[3,2-c]quinolin-1-yl]carbonyl}cyclohexyl)benzamide] | < 0.01 |
| COC(=O)c1ccc(C(=O)N[C@@H]2CCCC[C@@H]2C(=O)N2CC[C@@H]3[C@H](c4ccccc4)Nc4ccccc4[C@@H]32)cc1 [Example 100, Methyl 4-{[((1R,2S)-2-{[(3aR,4R,9bR)-4-phenyl-2,3,3a,4,5,9b-hexahydro-1H-pyrrolo[3,2-c]quinolin-1-yl]carbonyl}cyclohexyl)amino]carbonyl}benzoate] | < 0.01 |

Further lines, results first:

| IC50 [µM] | Compound |
| --- | --- |
| < 0.001 | O=C(/C=C/c1ccccc1)N[C@@H]1CCCC[C@@H]1C(=O)N1CC[C@@H]2[C@H](c3ccccc3)Nc3ccccc3[C@@H]21 [Example 101, (2E)-3-Phenyl-N-((1R,2S)-2-{[(3aR,4R,9bR)-4-phenyl-2,3,3a,4,5,9b-hexahydro-1H-pyrrolo[3,2-c]quinolin-1-yl]carbonyl}cyclohexyl)acrylamide] |
| < 0.01 | N#Cc1ccc(C(=O)N[C@@H]2CCCC[C@@H]2C(=O)N2CC[C@@H]3[C@H](c4ccccc4)Nc4ccccc4[C@@H]32)cc1 [Example 102, 4-Cyano-N-((1R,2S)-2-([(3aR,4R,9bR)-4-phenyl-2,3,3a,4,5,9b-hexahydro-1H-pyrrolo[3,2-c]quinolin-1-yl]carbonyl)cyclohexyl)benzamide] |
| < 0.001 | O=C(CCc1ccccc1)N[C@@H]1CCCC[C@@H]1C(=O)N1CC[C@@H]2[C@H](c3ccccc3)Nc3ccccc3[C@@H]21 [Example 103, 3-Phenyl-N-((1R,2S)-2-{[(3aR,4R,9bR)-4-phenyl-2,3,3a,4,5,9b-hexahydro-1H-pyrrolo[3,2-c]quinolin-1-yl]carbonyl}cyclohexyl)propanamide] |
| < 0.001 | COc1ccc(C(=O)N[C@@H]2CCCC[C@@H]2C(=O)N2CC[C@@H]3[C@H](c4ccccc4)Nc4ccccc4[C@@H]32)cc1OC [Example 104, 3,4-Dimethoxy-N-((1R,2S)-2-{[(3aR,4R,9bR)-4-phenyl-2,3,3a,4,5,9b-hexahydro-1H-pyrrolo[3,2-c]quinolin-1-yl]carbonyl}cyclohexyl)benzamide] |
| < 0.001 | COc1ccc(/C=C/C(=O)N[C@@H]2CCCC[C@@H]2C(=O)N2CC[C@@H]3[C@H](c4ccccc4)Nc4ccccc4[C@@H]32)cc1 [Example 105, (2E)-3-(4-Methoxyphenyl)-N-((1R,2S)-2-{[(3aR,4R,9bR)-4-phenyl-2,3,3a,4,5,9b-hexahydro-1H-pyrrolo[3,2-c]quinolin-1-yl]carbonyl}cyclohexyl)acrylamide] |
| < 0.01 | O=C(/C=C/c1ccc(C(F)(F)F)cc1)N[C@@H]1CCCC[C@@H]1C(=O)N1CC[C@@H]2[C@H](c3ccccc3)Nc3ccccc3[C@@H]21 [Example 106, (2E)-N-((1R,2S)-2-{[(3aR,4R,9bR)-4-Phenyl-2,3,3a,4,5,9b-hexahydro-1H-pyrrolo[3,2-c]quinolin-1-yl]carbonyl}cyclohexyl)-3-[4-(trifluoromethyl)phenyl]acrylamide] |
